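Cultured in 96-well plates, cells were exposed to test compound for 48 hours across five concentrations. Abbreviation: GI50, concentration required for 50% inhibition of growth.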 Calls of active or inactive are those of the source. Cut-off read from the data, not from the text of the source: active = GI50 up to about 1.1 µM and inactive = higher.
Assays:
Assay in all cases: NCI anticancer screen, dose series, 48 h
ACHN = tested on: ACHN
NCI-H23 = tested on: NCI-H23
SK-OV-3 = tested on: SK-OV-3
RPMI-8226 = tested on: RPMI-8226
CCRF-CEM = tested on: CCRF-CEM
UACC-257 = tested on: UACC-257
K562 = tested on: K562
M14 = tested on: M14
SNB-19 = tested on: SNB-19
HL-60 = tested on: HL-60
HT-29 = tested on: HT-29
SK-MEL-28 = tested on: SK-MEL-28
OVCAR-8 = tested on: OVCAR-8
Malme-3M = tested on: Malme-3M
A498 = tested on: A498
HOP-92 = tested on: HOP-92
HCT-116 = tested on: HCT-116
RXF 393 = tested on: RXF 393

Measured: GI50

COc1cccc(-c2cc(O)c3cc(OC)c(OC)cc3n2)c1
inactive: ACHN > 100 µM | NCI-H23 41.1 µM | SK-OV-3 87.3 µM | RPMI-8226 45.3 µM | CCRF-CEM 31.8 µM | UACC-257 28.9 µM | K562 40.3 µM | M14 37.9 µM | SNB-19 58.2 µM | HL-60 33.1 µM | HT-29 20.1 µM | SK-MEL-28 > 100 µM | OVCAR-8 45.2 µM | Malme-3M 35.7 µM

C/C(=N\N(c1ccccc1)c1ccccc1)c1c(O)cc(C)oc1=O
inactive: ACHN > 100 µM | NCI-H23 40.1 µM | SK-OV-3 > 100 µM | A498 > 100 µM | CCRF-CEM 89.7 µM | UACC-257 47.8 µM | K562 62.7 µM | HOP-92 46.3 µM | M14 > 100 µM | SNB-19 > 100 µM | HL-60 > 10 µM | HT-29 > 100 µM | HCT-116 45.1 µM | SK-MEL-28 > 100 µM | OVCAR-8 > 100 µM | Malme-3M > 100 µM

NC(=O)NC1C(C(N)=O)N(Cc2ccccc2)C(=O)N1Cc1ccccc1 (stereo unspecified)
inactive: ACHN > 100 µM | NCI-H23 > 100 µM | SK-OV-3 > 100 µM | RPMI-8226 > 100 µM | CCRF-CEM > 100 µM | UACC-257 > 100 µM | K562 > 100 µM | HOP-92 > 100 µM | M14 > 100 µM | SNB-19 > 100 µM | HL-60 > 100 µM | HT-29 > 100 µM | HCT-116 > 100 µM | SK-MEL-28 > 100 µM | OVCAR-8 > 100 µM | Malme-3M > 100 µM

N#CC(NNC(=O)Cc1ccccc1)c1ccc([N+](=O)[O-])cc1 (stereo unspecified)
inactive: ACHN > 100 µM | NCI-H23 > 100 µM | SK-OV-3 > 100 µM | RPMI-8226 > 100 µM | CCRF-CEM > 100 µM | UACC-257 > 100 µM | K562 > 100 µM | HOP-92 55.3 µM | RXF 393 > 100 µM | M14 > 100 µM | HL-60 > 100 µM | HT-29 > 100 µM | HCT-116 > 100 µM | SK-MEL-28 > 100 µM | OVCAR-8 > 100 µM | Malme-3M > 100 µM

Cc1cccc(C(=O)O)c1C(=O)c1cccc2ccccc12
inactive: ACHN > 100 µM | NCI-H23 > 100 µM | SK-OV-3 > 100 µM | A498 88.3 µM | CCRF-CEM > 100 µM | UACC-257 > 100 µM | K562 65 µM | RXF 393 > 100 µM | M14 > 100 µM | SNB-19 > 100 µM | HT-29 > 100 µM | HCT-116 > 100 µM | SK-MEL-28 > 100 µM | OVCAR-8 > 100 µM | Malme-3M > 100 µM

CC(C)C(/C=C/c1ccccc1)=N\NC(=O)N/N=C(/C=C/c1ccccc1)C(C)C
inactive: ACHN 26.9 µM | NCI-H23 53.7 µM | SK-OV-3 40.2 µM | RPMI-8226 24.3 µM | CCRF-CEM 28.2 µM | UACC-257 44 µM | K562 21.2 µM | HOP-92 20.7 µM | M14 39.4 µM | SNB-19 37.7 µM | HL-60 15.2 µM | HT-29 26.5 µM | HCT-116 19.1 µM | SK-MEL-28 74 µM | OVCAR-8 28.8 µM

O=C(CN(Cc1ccccc1)Cc1ccccc1)N1CCc2c([nH]c3ccccc23)C1c1cccnc1 (stereo unspecified)
inactive: ACHN 7.64 µM | NCI-H23 5.41 µM | SK-OV-3 80.9 µM | RPMI-8226 1.86 µM | A498 16.7 µM | CCRF-CEM 4.11 µM | UACC-257 13.2 µM | K562 3.17 µM | HOP-92 2.79 µM | M14 3.66 µM | SNB-19 19.5 µM | HL-60 1.71 µM | HT-29 5.57 µM | HCT-116 3.74 µM | SK-MEL-28 21.2 µM | OVCAR-8 6.1 µM

N#CCCc1nc2ccc(Br)cc2c(=O)n1CCO
inactive: NCI-H23 > 100 µM | SK-OV-3 > 100 µM | RPMI-8226 > 100 µM | CCRF-CEM > 100 µM | UACC-257 > 100 µM | K562 > 100 µM | HOP-92 > 100 µM | RXF 393 > 100 µM | M14 > 100 µM | HL-60 > 100 µM | SK-MEL-28 > 100 µM | OVCAR-8 > 100 µM | Malme-3M > 100 µM

CC(C)(C)C(=O)O[C@@H]1COC2C(O)COC21 (stereo partly specified)
inactive: ACHN > 100 µM | NCI-H23 > 100 µM | CCRF-CEM > 100 µM | UACC-257 > 100 µM | K562 > 100 µM | HOP-92 > 100 µM | RXF 393 > 100 µM | M14 > 100 µM | SNB-19 > 100 µM | HL-60 > 100 µM | HT-29 > 100 µM | HCT-116 > 100 µM | SK-MEL-28 > 100 µM | OVCAR-8 > 100 µM | Malme-3M > 100 µM

Source: ChEMBL document CHEMBL1201862, “PubChem BioAssay data set” (2004)
